This passage reports TGI and GI50 results from PubChem BioAssay (NCI).

Test systems include ACHN renal; HL-60(TB) leukemia; KM12 colon; U251 CNS; SNB-75 CNS; T-47D breast; EKVX NSCLC; 786-0 renal; CAKI-1 renal.
What all share (test): NCI anticancer screen, dose series, 48 h

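Where inhibition never reached the appropriate level, the endpoint shown equals the highest concentration tested. Otherwise, values were interpolated linearly from a five-concentration, 48-hour dose response in 96-well plates. The concentration for 50% growth inhibition is given as GI50. Definition used: TGI = concentration required for complete inhibition of growth.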 Where only a bound is given, the exact number is not on record here.

With `COc1ccc(C2=CC(c3ccc4c(c3)OCO4)c3c(c4ccccc4oc3=O)O2)cc1OC` (stereo not given), the TGI is above 100 µM in the experiment on ACHN renal; 1.67 µM with HL-60(TB) leukemia; above 100 µM in the experiment on KM12 colon; above 100 µM in the experiment with U251 CNS; above 21.4 µM in the experiment on SNB-75 CNS; above 100 µM with T-47D breast. Moreover, the TGI in the experiment with EKVX NSCLC, in the experiment with 786-0 renal and in the experiment on CAKI-1 renal was above 100 µM each time.

Take `COc1cc(/C=C/C(=O)c2cccc(Nc3nc(Nc4ccccc4)nc(Nc4ccccc4)n3)c2)cc(OC)c1OC`: the GI50 with ACHN renal was 24.1 µM; with HL-60(TB) leukemia, 1.33 µM; with KM12 colon it was 3.71 µM; in the experiment on U251 CNS, 11.4 µM; in the experiment on SNB-75 CNS, 16 µM; with T-47D breast, 1.98 µM. The GI50 in the experiment with EKVX NSCLC was 9.94 µM; in the experiment on 786-0 renal it was 7.66 µM. Also, the TGI in the experiment with ACHN renal was above 100 µM; in the experiment on HL-60(TB) leukemia it was 4.1 µM; with KM12 colon, above 87.9 µM; with U251 CNS, above 100 µM; in the experiment on SNB-75 CNS it was above 100 µM; with T-47D breast, above 59 µM. The TGI is above 100 µM in the experiment on EKVX NSCLC, 43.2 µM in the experiment on 786-0 renal and above 26.2 µM in the experiment on CAKI-1 renal.

As for `COc1cc([N+](=O)[O-])c(OC)cc1-c1nc2sc(Cl)cn2c1/C(N)=N/C(=N)N`, the GI50 in the experiment with ACHN renal was above 56.9 µM; in the experiment with KM12 colon, 2.75 µM; in the experiment on U251 CNS, 3.41 µM; in the experiment on T-47D breast it was 2.31 µM; in the experiment on EKVX NSCLC, 9.66 µM; with 786-0 renal, 2.33 µM. Further, in the experiment with CAKI-1 renal, the GI50 is 39 µM. The TGI in the experiment with ACHN renal was above 100 µM; in the experiment with KM12 colon, 9.16 µM; in the experiment on U251 CNS, above 100 µM; in the experiment with T-47D breast it was 5.63 µM; with EKVX NSCLC, 40.9 µM; with 786-0 renal it was 5.64 µM. In the experiment on CAKI-1 renal, the TGI was above 100 µM.

Regarding `C=C1C(=O)O[C@H]2[C@H]1CC/C(COC(=O)NCc1ccc(Cn3c(=O)sn(CCCl)c3=O)cc1)=C\CC[C@@]1(C)O[C@@H]21`, the GI50 was 1.54 µM in the experiment on ACHN renal; 1.92 µM in the experiment on HL-60(TB) leukemia; 13.4 µM in the experiment with KM12 colon; 6.79 µM in the experiment with U251 CNS; 7.65 µM in the experiment with SNB-75 CNS; 1.97 µM in the experiment with T-47D breast. For the same molecule, the values for the GI50 with EKVX NSCLC, with 786-0 renal and in the experiment on CAKI-1 renal were 1.99 µM, 1.79 µM and 1.76 µM, respectively. Also, the TGI in the experiment on ACHN renal is 2.87 µM; in the experiment on HL-60(TB) leukemia, 4.96 µM; with KM12 colon, 27.7 µM; with U251 CNS, 20.2 µM; in the experiment on SNB-75 CNS, 21 µM; with T-47D breast, 5.16 µM. Besides, the TGI with EKVX NSCLC turned out to be 5.25 µM; with 786-0 renal, 3.27 µM; with CAKI-1 renal it was 3.71 µM.

As for `O=C1c2ccccc2C(O)(O)C1(O)C1(O)C(=O)c2ccccc2C1(O)O` (stereo not given), the TGI was 47.9 µM with ACHN renal; 53.2 µM in the experiment with HL-60(TB) leukemia; above 100 µM with KM12 colon; above 100 µM in the experiment on U251 CNS; 72.3 µM in the experiment on SNB-75 CNS; 60.3 µM in the experiment with T-47D breast. For the same molecule, the TGI with EKVX NSCLC, in the experiment on 786-0 renal and in the experiment on CAKI-1 renal was above 100 µM throughout.

Consider `CC(C)(C)c1ccc(Oc2nccc(-c3c(-c4ccc(F)cc4)ncn3C3CCNCC3)n2)cc1`, for which the GI50 was 3.49 µM in the experiment on ACHN renal; 4.64 µM in the experiment with HL-60(TB) leukemia; 3.95 µM with KM12 colon; 3.23 µM in the experiment on U251 CNS; 2.89 µM in the experiment with SNB-75 CNS; 4.46 µM in the experiment with T-47D breast. Besides, the figures for the GI50 with EKVX NSCLC, with 786-0 renal and in the experiment with CAKI-1 renal were 3.6 µM, 4.22 µM and 3.96 µM, respectively. Besides, the TGI in the experiment on ACHN renal came out at 6.78 µM; in the experiment with HL-60(TB) leukemia, 9.1 µM; in the experiment on KM12 colon, 7.61 µM; with U251 CNS it was 6.49 µM; in the experiment with SNB-75 CNS, 6.15 µM; in the experiment on T-47D breast, 8.56 µM. The TGI in the experiment on EKVX NSCLC was determined as 7.36 µM; with 786-0 renal, 8.12 µM; in the experiment on CAKI-1 renal, 7.64 µM.

As for `COc1cc(NC(C)CCCNC2CN3CCC2CC3)c2ncccc2c1` (stereo not given), the GI50 is 14.7 µM with ACHN renal; 2.86 µM in the experiment with HL-60(TB) leukemia; 14.6 µM in the experiment on KM12 colon; 10.6 µM with U251 CNS; 7.07 µM with SNB-75 CNS; 4.54 µM in the experiment on T-47D breast. Besides, the GI50 was 12.1 µM with EKVX NSCLC, 13.4 µM with 786-0 renal and 13.4 µM in the experiment with CAKI-1 renal. For the same molecule, the TGI with ACHN renal came to 29.3 µM; with HL-60(TB) leukemia it was 11 µM; with KM12 colon it was 29.1 µM; in the experiment on U251 CNS, 24 µM; in the experiment with SNB-75 CNS, 20.6 µM; in the experiment with T-47D breast it was 20.5 µM. For the same molecule, the TGI in the experiment with EKVX NSCLC was determined as 26.7 µM; in the experiment with 786-0 renal it was 27.1 µM; in the experiment on CAKI-1 renal it was 38.9 µM.

Consider `COc1ccc2c(c1)c(=O)oc1cc(OC/C(C)=N\O)ccc12`, for which the GI50 with ACHN renal is 29.9 µM; with KM12 colon it was above 100 µM; in the experiment on U251 CNS it was 33.4 µM; in the experiment on SNB-75 CNS, 14.9 µM; with T-47D breast it was above 100 µM; with EKVX NSCLC, 3.38 µM. Also, the GI50 with 786-0 renal and with CAKI-1 renal was above 100 µM throughout. Moreover, the TGI in the experiment with ACHN renal is above 100 µM; in the experiment with KM12 colon it was above 100 µM; with U251 CNS it was above 100 µM; in the experiment on SNB-75 CNS, 42.9 µM; in the experiment on T-47D breast it was above 100 µM; in the experiment with EKVX NSCLC, above 100 µM. Besides, the TGI with 786-0 renal and in the experiment on CAKI-1 renal was above 100 µM throughout.

Consider `C[C@H]1[C@H](C)CC[C@]2(CO)CC[C@]3(C)C(=CC[C@@H]4[C@@]5(C)CCCNC(C)(C)[C@@H]5CC[C@]43C)[C@H]12`, for which the GI50 with ACHN renal was 1.69 µM; in the experiment with KM12 colon, 1.84 µM; in the experiment on U251 CNS it was 1.67 µM; in the experiment on SNB-75 CNS, 1.49 µM; in the experiment on T-47D breast, 1.68 µM; with EKVX NSCLC, 1.66 µM. Besides, the GI50 is 1.6 µM with 786-0 renal and 1.62 µM in the experiment with CAKI-1 renal. Further, the TGI was found to be 3.06 µM in the experiment on ACHN renal; 3.51 µM with KM12 colon; 3.15 µM with U251 CNS; 2.9 µM in the experiment with SNB-75 CNS; 4.03 µM in the experiment on T-47D breast; 3.29 µM in the experiment with EKVX NSCLC. Besides, the TGI with 786-0 renal was determined as 3.06 µM; with CAKI-1 renal, 3.23 µM.
